According to patent US10689378B2, “Triazolopyridine compounds and uses thereof” (Novartis AG, priority 2016, dated 2020):

What was measured:
EED (1-441)-His protein = target: T1, EED (1-441)-His protein (Homo sapiens, UniProt O75530); test: EED-H3K27Me3 peptide competition binding assay by AlphaScreen; conditions: read-out: (a) IC50, EED Alphascreen binding Qualified
T1 construct: 30 nM EED (1-441)-His protein
Method in brief: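 Serially diluted compound (12 points, 3-fold) incubated 20 min with 30 nM EED(1-441)-His and 15 nM biotin-H3K27Me3(19-33) peptide in 25 mM HEPES pH 8, 0.02% Tween-20, 0.5% BSA. Ni-chelate acceptor/streptavidin donor beads (10 μg/mL each) added, 1 h rt dark; 615 nm emission normalized to controls, dose-response fit for IC50.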

[1] = target: wild type PRC2 (wtPRC2) complex (Homo sapiens, UniProt O75530); test: EED LC-MS assay (SAH production by PRC2); type: biochemical; conditions: read-out: (b) IC50, EED LC-MS Qualified
Method in brief: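 LC-MS/MS readout of SAH (d4-SAH standard) after TFA quench gives PRC2 activity, normalized to controls and fitted to dose-response for IC50. Reaction: 12 nM EZH2/SUZ12/EED/Rbap48/AEBP complex, 1 μM SAM, 1.5 μM H3[21-44] peptide, 120 min rt, 20 min compound preincubation.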

[2] = system: H3K27 methylation in G401 cell; test: ELISA (H3K27 methylation) assay in G401 cells; type: cell-based, human; conditions: Homo sapiens, G-401, read-out: (c) IC50, ELISA Qualified
Method in brief: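 IC50 from dose-response fit of percent inhibition relative to DMSO, using H3K27me3/me2 ELISA signal (ECL) normalized to histone H3. Histones HCl-extracted after 48 h compound exposure of G401 cells at up to 20 μM, 8- or 12-point 3-fold series.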

Chain of wild type PRC2 (wtPRC2) complex (O75530 whole entry): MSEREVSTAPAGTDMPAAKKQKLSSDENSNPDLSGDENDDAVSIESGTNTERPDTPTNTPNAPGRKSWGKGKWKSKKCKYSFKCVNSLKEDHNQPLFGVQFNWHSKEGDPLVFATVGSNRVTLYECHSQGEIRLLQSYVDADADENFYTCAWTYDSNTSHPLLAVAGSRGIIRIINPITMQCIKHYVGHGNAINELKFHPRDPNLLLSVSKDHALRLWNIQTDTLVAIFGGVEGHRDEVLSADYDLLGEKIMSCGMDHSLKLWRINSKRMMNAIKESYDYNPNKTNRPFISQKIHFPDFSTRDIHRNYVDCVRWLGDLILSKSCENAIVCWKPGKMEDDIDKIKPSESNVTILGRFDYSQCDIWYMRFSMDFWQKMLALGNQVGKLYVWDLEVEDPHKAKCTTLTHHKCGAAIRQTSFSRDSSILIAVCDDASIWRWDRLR
Chain of wild type PRC2 (wtPRC2) complex (Q15910 whole entry partner): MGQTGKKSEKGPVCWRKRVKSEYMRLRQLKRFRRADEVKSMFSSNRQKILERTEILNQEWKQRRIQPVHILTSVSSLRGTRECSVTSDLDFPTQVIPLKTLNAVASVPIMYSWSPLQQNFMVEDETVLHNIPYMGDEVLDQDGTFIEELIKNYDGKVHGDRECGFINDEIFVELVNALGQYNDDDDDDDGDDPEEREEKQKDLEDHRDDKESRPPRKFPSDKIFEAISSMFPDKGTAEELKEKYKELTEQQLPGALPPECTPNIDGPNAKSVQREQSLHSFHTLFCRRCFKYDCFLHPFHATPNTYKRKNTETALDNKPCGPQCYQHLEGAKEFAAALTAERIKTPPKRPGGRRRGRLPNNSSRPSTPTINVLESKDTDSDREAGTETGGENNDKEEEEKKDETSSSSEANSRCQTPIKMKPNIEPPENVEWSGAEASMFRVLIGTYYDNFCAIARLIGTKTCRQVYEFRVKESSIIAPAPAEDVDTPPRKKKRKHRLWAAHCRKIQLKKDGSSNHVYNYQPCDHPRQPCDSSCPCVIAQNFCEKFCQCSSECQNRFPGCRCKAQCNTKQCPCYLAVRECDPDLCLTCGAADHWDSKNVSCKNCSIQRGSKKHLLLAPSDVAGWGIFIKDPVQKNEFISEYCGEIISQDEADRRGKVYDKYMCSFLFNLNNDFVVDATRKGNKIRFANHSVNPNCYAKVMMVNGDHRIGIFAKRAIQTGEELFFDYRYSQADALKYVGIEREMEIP
Chain of wild type PRC2 (wtPRC2) complex (Q15022 whole entry partner): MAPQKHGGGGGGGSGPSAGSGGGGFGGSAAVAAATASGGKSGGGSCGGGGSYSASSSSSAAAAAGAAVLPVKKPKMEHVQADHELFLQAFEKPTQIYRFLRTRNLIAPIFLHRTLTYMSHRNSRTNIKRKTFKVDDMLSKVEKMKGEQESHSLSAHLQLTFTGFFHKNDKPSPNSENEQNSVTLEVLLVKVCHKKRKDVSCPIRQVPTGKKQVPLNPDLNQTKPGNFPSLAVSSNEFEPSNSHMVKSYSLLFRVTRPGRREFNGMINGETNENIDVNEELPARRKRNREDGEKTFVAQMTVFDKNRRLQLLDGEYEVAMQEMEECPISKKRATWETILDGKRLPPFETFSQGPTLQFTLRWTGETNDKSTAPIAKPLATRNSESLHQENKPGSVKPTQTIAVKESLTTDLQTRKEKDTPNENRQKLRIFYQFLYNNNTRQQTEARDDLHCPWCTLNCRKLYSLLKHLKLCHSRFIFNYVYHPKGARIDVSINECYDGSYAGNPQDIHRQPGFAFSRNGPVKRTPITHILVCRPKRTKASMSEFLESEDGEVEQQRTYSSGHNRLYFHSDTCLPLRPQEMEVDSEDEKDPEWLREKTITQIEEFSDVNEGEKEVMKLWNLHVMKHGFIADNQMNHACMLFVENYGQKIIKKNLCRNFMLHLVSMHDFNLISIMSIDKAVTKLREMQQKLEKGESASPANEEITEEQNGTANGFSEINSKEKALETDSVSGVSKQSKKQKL
Chain of wild type PRC2 (wtPRC2) complex (Q09028 whole entry partner): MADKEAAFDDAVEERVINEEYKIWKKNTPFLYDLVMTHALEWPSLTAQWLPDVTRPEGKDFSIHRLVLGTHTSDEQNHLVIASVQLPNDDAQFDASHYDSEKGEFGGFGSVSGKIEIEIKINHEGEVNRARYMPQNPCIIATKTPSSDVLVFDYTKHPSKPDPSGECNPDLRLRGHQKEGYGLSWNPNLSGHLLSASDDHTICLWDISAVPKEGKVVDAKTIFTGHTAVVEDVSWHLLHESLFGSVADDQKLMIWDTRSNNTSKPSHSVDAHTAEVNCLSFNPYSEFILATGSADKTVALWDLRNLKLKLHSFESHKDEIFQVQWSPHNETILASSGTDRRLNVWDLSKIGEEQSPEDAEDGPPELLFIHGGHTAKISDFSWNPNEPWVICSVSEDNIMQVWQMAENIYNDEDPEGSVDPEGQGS
Chain of wild type PRC2 (wtPRC2) complex (Q6ZN18 whole entry partner): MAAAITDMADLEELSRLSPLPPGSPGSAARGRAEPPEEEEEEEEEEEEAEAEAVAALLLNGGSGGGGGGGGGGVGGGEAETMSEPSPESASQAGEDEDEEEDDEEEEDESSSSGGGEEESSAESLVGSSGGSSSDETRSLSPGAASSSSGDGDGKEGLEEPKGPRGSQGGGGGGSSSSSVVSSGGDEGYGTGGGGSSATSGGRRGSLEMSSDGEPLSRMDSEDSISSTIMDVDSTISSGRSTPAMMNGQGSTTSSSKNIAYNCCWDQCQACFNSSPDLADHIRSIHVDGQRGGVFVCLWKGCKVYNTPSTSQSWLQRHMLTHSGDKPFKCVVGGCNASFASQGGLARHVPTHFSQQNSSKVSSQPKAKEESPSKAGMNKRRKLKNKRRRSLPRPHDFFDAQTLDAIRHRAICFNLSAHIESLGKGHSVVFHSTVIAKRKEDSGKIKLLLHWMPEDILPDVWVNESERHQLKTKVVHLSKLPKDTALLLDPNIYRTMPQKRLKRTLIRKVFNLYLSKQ
T1 sequence (O75530 whole entry): as the sequence (O75530 whole entry) above

Structure (SMILES)	IC50 (EED (1-441)-His protein)	IC50 [1]	IC50 [2]
COc1cccc(F)c1CNc1ccc(-c2cnc(N3CCN(C(C)C)CC3)c(C(F)(F)F)c2)c2nncn12 [Example 108, N-(2-fluoro-6-methoxybenzyl)-8-(6-(4-isopropylpiperazin-1-yl)-5-(trifluoromethyl)pyridin-3-yl)-[1,2,4]triazolo[4,3-a] pyridin-5-amine]	70.8 nM	350 nM	191 nM
COc1cccc(F)c1CNc1ccc(-c2cnc(N3CCN(C(C)C)CC3)c(Cl)c2)c2nncn12 [Example 109, 8-(5-chloro-6-(4-isopropylpiperazin-1-yl)pyridin-3-yl)-N-(2-fluoro-6-methoxybenzyl)-[1,2,4] triazolo[4,3-a]pyridin-5-amine]	27.1 nM	299 nM	103 nM
COc1ccccc1CNc1ccc(-c2ccc(C)nc2)c2nncn12 [Example 111, N-(2-methoxybenzyl)-8-(6-methylpyridin-3-yl)-[1,2,4] triazolo[4,3-a]pyridin-5-amine]	76.5 nM	405 nM	56.7 nM
COc1ccccc1CNc1ccc(-c2ccc(CCN(C)C)cc2)c2nncn12 [Example 123, 8-(4-(2-(dimethylamino)ethyl)phenyl)-N-(2-methoxybenzyl)-[1,2,4]triazolo[4,3-a] pyridin-5-amine]	42 nM	368 nM	99.4 nM
COc1cccc(F)c1CNc1ccc(-c2c(C)nn(C)c2C)c2nncn12 [Example 124, N-(2-fluoro-6-methoxybenzyl)-8-(1,3,5-trimethyl-1H-pyrazol-4-yl)-[1,2,4] triazolo[4,3-a]pyridin-5-amine]	52.1 nM	64.5 nM	24.7 nM
COc1ccccc1CNc1ccc(-c2ccc(S(=O)(=O)C(C)C)nc2)c2nncn12 [Example 127, 8-(6-(isopropylsulfonyl)pyridin-3-yl)-N-(2-methoxybenzyl)-[1,2,4]triazolo[4,3-a] pyridin-5-amine]	21.7 nM	572 nM	14.2 nM
COc1ccccc1CNc1ccc(-c2ccc(S(=O)(=O)C3CCN(C)CC3)cc2)c2nncn12 [Example 128, N-(2-methoxybenzyl)-8-(4-((1-methylpiperidin-4-yl)sulfonyl)phenyl)-[1,2,4] triazolo[4,3-a]pyridin-5-amine]	33.2 nM	224 nM	18.5 nM
COc1cccc(F)c1CNc1ccc(-c2ccc(N3CCN(C(C)C)CC3)nc2)c2nncn12 [Example 130, N-(2-fluoro-6-methoxybenzyl)-8-(6-(4-isopropylpiperazin-1-yl)pyridin-3-yl)-[1,2,4]triazolo[4,3-a]pyridin-5-amine]	31.1 nM	62.5 nM	80.9 nM
COc1cccc(F)c1CNc1ccc(-c2cnc(N3CCN(C(C)C)CC3)nc2)c2nncn12 [Example 131, N-(2-fluoro-6-methoxybenzyl)-8-(2-(4-isopropylpiperazin-1-yl)pyrimidin-5-yl)-[1,2,4]triazolo[4,3-a] pyridin-5-amine]	32.2 nM	181 nM	81.2 nM
COc1cccc(F)c1CNc1ccc(-c2c(C)noc2C)c2nncn12 [Example 139, 8-(3,5-dimethylisoxazol-4-yl)-N-(2-fluoro-6-methoxybenzyl)-[1,2,4]triazolo[4,3-a] pyridin-5-amine]	26 nM	46.5 nM	11.7 nM
CCN1CCC(S(=O)(=O)c2ccc(-c3ccc(NCc4ccccc4OC)n4cnnc34)cn2)CC1 [Example 143, 8-(6-((1-ethylpiperidin-4-yl)sulfonyl)pyridin-3-yl)-N-(2-methoxybenzyl)-[1,2,4] triazolo[4,3-a]pyridin-5-amine]	31.1 nM	323 nM	53.2 nM
CCN1CCN(c2ccc(-c3ccc(NCc4ccccc4OC)n4cnnc34)cc2)CC1 [Example 152, 8-(4-(4-ethylpiperazin-1-yl)phenyl)-N-(2-methoxybenzyl)-[1,2,4]triazolo[4,3-a] pyridin-5-amine]	65.9 nM	207 nM	101 nM

Other lines, results leading:

IC50 (EED (1-441)-His protein)	IC50 [1]	IC50 [2]	Structure (SMILES)
9.8 nM	256 nM	4.9 nM	COc1cccc(F)c1CNc1ccc(-c2ccc(S(C)(=O)=O)nc2)c2nncn12 [Example 112, N-(2-fluoro-6-methoxybenzyl)-8-(6-(methylsulfonyl)pyridin-3-yl)-[1,2,4]triazolo[4,3-a] pyridin-5-amine]
38.7 nM	117 nM	27.4 nM	COc1cccc(F)c1CNc1ccc(-c2ccncc2)c2nncn12 [Example 113, N-(2-fluoro-6-methoxybenzyl)-8-(pyridin-4-yl)-[1,2,4]triazolo[4,3-a]pyridin-5-amine]
16 nM	90.6 nM	9.5 nM	COc1cccc(F)c1CNc1ccc(-c2cccnc2)c2nncn12 [Example 114, N-(2-fluoro-6-methoxybenzyl)-8-(pyridin-3-yl)-[1,2,4]triazolo[4,3-a]pyridin-5-amine]
11.5 nM	1740 nM	5 nM	COc1cccc(F)c1CNc1ccc(-c2ccc(S(=O)(=O)NCCO)cc2)c2nncn12 [Example 126, 4-(5-((2-fluoro-6-methoxybenzyl)amino)-[1,2,4]triazolo[4,3-a]pyridin-8-yl)-N-(2-hydroxyethyl) benzenesulfonamide]
69.1 nM	64.9 nM	21.8 nM	COc1cccc(F)c1CNc1ccc(-c2ccc(S(=O)(=O)C3CCNCC3)cc2)c2nncn12 [Example 132, N-(2-fluoro-6-methoxybenzyl)-8-(4-(piperidin-4-ylsulfonyl)phenyl)-[1,2,4] triazolo[4,3-a]pyridin-5-amine]
5 nM	65.8 nM	5.3 nM	COc1cccc(F)c1CNc1ccc(-c2ccc(S(=O)(=O)C3CCN(C)CC3)cc2)c2nncn12 [Example 133, N-(2-fluoro-6-methoxybenzyl)-8-(4-((1-methylpiperidin-4-yl)sulfonyl)phenyl)-[1,2,4]triazolo[4,3-a] pyridin-5-amine]
17.5 nM	268 nM	18.8 nM	COc1cccc(F)c1CNc1ccc(-c2cncc(S(C)(=O)=O)c2)c2nncn12 [Example 140, N-(2-fluoro-6-methoxybenzyl)-8-(5-(methylsulfonyl)pyridin-3-yl)-[1,2,4]triazolo[4,3-a] pyridin-5-amine]
13.6 nM	106 nM	34.8 nM	COc1cccc(F)c1CNc1ccc(-c2cccc(S(C)(=O)=O)c2)c2nncn12 [Example 142, N-(2-fluoro-6-methoxybenzyl)-8-(3-(methylsulfonyl)phenyl)-[1,2,4]triazolo[4,3-a]pyridin-5-amine]
77.4 nM	60.8 nM	42.5 nM	COc1cccc(F)c1CNc1ccc(-c2cncnc2)c2nncn12 [Example 147, N-(2-fluoro-6-methoxybenzyl)-8-(pyrimidin-5-yl)-[1,2,4]triazolo[4,3-a]pyridin-5-amine]
28.9 nM	99.8 nM	60.6 nM	COc1cncc(-c2ccc(NCc3c(F)cccc3OC)n3cnnc23)c1 [Example 148, N-(2-fluoro-6-methoxybenzyl)-8-(5-methoxypyridin-3-yl)-[1,2,4] triazolo[4,3-a]pyridin-5-amine]
18.2 nM	27.1 nM	14.9 nM	CCN1CCC(S(=O)(=O)c2ccc(-c3ccc(NCc4c(F)cccc4OC)n4cnnc34)cn2)CC1 [Example 149, 8-(6-((1-ethylpiperidin-4-yl)sulfonyl)pyridin-3-yl)-N-(2-fluoro-6-methoxybenzyl)-[1,2,4]triazolo[4,3-a]pyridin-5-amine]
35.6 nM	94.8 nM	14.2 nM	COc1cccc(F)c1CNc1ccc(-c2cnccc2C)c2nncn12 [Example 150, N-(2-fluoro-6-methoxybenzyl)-8-(4-methylpyridin-3-yl)-[1,2,4]triazolo[4,3-a] pyridin-5-amine]
66.4 nM	676 nM	80.3 nM	COc1cccc(F)c1CNc1ccc(-c2ccc(O)nc2)c2nncn12 [Example 151, 5-(5-((2-fluoro-6-methoxybenzyl)amino)-[1,2,4]triazolo[4,3-a]pyridin-8-yl) pyridin-2-ol]
4.5 nM	83.4 nM	4.9 nM	COc1cccc(F)c1CNc1ccc(-c2ccc(N(C)S(C)(=O)=O)cc2)c2nncn12 [Example 154, N-(4-(5-((2-fluoro-6-methoxybenzyl)amino)-[1,2,4]triazolo[4,3-a]pyridin-8-yl)phenyl)-N-methyl methanesulfonamide]
40.4 nM	152 nM	43.1 nM	COc1cccc(F)c1CNc1ccc(-c2ccc(OCCO)cc2)c2nncn12 [Example 157, 2-(4-(5-((2-fluoro-6-methoxybenzyl)amino)-[1,2,4]triazolo[4,3-a]pyridin-8-yl)phenoxy)ethanol]
13.8 nM	38.9 nM	19.6 nM	COc1cccc(F)c1CNc1ccc(-c2cncc(F)c2)c2nncn12 [Example 158, N-(2-fluoro-6-methoxybenzyl)-8-(5-fluoropyridin-3-yl)-[1,2,4]triazolo[4,3-a] pyridin-5-amine]
